Laboratory results from ChEMBL document CHEMBL5647685.
Activity calls are given as the source filed them. The calls are words filed in the database; no cut-off is given here.

Columns and labels:
[1] = system: MSC; assay: Induction of osteoblast nodule formation in human MSC cultures assessed as mineral incorporation at 0.1 to 1 uM by blue incubated for 1 to 14 days calcein detection based fluorescent micrography; format: functional, cell-based; conditions: dose 0.1-1 µM, time 1-14 day
[2] = system: MSC; assay: Bone activity in human MSC cultures assessed as promotion of osteogenesis at 0.1 to 1 uM dosed on days 1 to 7 and measured on day 7 by alkaline phosphatase activity detection detection assay; format: functional; conditions: dose 0.1-1 µM, time 7.0 day
[3] = biological target: T1, Aurora kinase A (Homo sapiens) (UniProt O14965); assay: Inhibition of full-length C-terminal his-tagged human AUR2 at 1 uM pre-incubated with enzyme for 1 h prior to the addition of 500 uM ATP relative to control
T1 sequence (whole entry): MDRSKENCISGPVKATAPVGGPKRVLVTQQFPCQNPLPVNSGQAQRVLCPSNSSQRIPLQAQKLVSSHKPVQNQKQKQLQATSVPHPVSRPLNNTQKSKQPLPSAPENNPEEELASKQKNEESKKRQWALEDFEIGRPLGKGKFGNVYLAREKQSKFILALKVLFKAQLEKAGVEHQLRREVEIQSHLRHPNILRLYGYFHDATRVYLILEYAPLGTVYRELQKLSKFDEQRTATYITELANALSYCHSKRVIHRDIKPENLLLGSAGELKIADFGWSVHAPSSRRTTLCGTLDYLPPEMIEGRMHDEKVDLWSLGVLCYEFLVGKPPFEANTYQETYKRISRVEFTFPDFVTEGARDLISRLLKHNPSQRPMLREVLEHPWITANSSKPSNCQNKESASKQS

[4] = biological target: T2, Tyrosine-protein kinase JAK3 (Homo sapiens) (UniProt P52333); assay: Inhibition of full-length C-terminal his-tagged human JAK3 at 1 uM pre-incubated with enzyme for 1 h prior to the addition of 500 uM ATP relative to control
T2 sequence (whole entry): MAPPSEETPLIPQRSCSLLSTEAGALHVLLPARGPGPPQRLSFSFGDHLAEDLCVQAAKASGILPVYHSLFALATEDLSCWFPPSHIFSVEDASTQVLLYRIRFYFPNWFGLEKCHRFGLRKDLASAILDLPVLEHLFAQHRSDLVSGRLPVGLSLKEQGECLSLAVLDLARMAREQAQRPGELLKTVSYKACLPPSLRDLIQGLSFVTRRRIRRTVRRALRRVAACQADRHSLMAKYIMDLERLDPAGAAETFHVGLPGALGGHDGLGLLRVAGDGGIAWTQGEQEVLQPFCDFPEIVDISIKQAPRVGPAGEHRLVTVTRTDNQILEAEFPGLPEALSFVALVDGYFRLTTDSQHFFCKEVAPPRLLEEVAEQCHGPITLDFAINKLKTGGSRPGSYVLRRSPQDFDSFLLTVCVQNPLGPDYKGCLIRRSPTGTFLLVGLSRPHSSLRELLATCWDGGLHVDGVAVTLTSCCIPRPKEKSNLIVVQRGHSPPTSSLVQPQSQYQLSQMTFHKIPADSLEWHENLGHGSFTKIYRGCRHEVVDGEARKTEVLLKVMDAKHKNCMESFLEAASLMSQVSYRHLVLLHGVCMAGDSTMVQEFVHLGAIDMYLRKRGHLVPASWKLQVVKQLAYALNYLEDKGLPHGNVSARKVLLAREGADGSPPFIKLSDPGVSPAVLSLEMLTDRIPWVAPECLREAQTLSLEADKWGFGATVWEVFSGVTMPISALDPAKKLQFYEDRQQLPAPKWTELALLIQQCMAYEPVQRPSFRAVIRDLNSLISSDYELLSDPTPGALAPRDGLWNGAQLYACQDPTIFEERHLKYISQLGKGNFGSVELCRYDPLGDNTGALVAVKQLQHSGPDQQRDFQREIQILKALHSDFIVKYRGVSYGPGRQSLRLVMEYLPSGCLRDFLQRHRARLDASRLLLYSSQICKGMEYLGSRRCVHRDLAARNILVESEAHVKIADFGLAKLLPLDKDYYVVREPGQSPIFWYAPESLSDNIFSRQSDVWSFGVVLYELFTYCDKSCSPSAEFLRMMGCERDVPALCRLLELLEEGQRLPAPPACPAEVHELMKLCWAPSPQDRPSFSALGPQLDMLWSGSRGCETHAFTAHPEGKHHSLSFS

[5] = system: MSC; assay: Bone activity in human MSC cultures assessed as promotion of osteogenesis at 0.1 to 1 uM dosed on days 4 to 7 and measured on day 7 by alkaline phosphatase activity detection detection assay; format: functional; conditions: dose 0.1-1 µM, time 4.0 day
[6] = biological target: High affinity nerve growth factor receptor (Homo sapiens) (UniProt P04629); assay: Inhibition of full-length C-terminal his-tagged human TRKA at 1 uM pre-incubated with enzyme for 1 h prior to the addition of 500 uM ATP relative to control
High affinity nerve growth factor receptor (Homo sapiens), sequence (P04629 33-796 limits assumed): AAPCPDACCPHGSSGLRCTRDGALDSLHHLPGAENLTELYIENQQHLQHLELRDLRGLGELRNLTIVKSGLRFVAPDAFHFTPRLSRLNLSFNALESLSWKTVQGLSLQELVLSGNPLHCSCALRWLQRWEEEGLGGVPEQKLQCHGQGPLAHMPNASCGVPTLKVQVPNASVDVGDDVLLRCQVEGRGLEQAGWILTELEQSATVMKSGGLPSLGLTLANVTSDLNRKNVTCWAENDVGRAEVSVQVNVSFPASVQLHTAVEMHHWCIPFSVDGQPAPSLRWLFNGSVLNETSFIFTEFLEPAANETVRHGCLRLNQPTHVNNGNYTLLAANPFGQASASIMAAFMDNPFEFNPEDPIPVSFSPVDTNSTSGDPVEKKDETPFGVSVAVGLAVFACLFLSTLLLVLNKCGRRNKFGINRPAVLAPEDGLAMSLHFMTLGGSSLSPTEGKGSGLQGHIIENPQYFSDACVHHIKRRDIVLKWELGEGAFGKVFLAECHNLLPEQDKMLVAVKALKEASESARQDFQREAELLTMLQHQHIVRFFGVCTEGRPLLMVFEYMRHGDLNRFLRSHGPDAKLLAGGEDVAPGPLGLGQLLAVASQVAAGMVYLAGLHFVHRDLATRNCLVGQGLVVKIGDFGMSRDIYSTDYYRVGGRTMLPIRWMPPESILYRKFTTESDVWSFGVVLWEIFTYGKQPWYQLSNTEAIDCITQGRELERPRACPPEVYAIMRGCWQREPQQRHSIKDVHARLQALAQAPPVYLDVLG

Row | Activity [2] | inhibition [3] | inhibition [4] | Activity [5] | inhibition [6] | Structure (SMILES) | Activity [1]
1 | Dose-Dependent Effect |  |  |  |  | Cc1ccc(-n2nc(C(C)(C)C)cc2NC(=O)Nc2cc(COc3cccnc3)n[nH]2)cc1 | Active
2 |  | > 90% | > 90% | Active | > 90% | CN(c1ccccc1CNc1nc(Nc2ccc3c(c2)CC(=O)N3)ncc1C(F)(F)F)S(C)(=O)=O | inactive
